Results reported in patent publication US20070082865A1, “Compositions and methods for treatment of airway hypersecretion” (Washington University, priority 2005, published 2007).

Columns and labels:
[1] = test system: mouse tracheal epithelial cell (mTEC) cultures; test: Apoptosis in mTEC cultures (active caspase 3, TUNEL); format: cell-based; settings: mTEC with EGFR signaling blockade plus z-VAD-fmk (100 μM)
Experimental: Bar=20 μm. Methodology is further described in Example 3.
FIGS. 13A and 13B are bar graphs showing quantitative analysis of FIG. 12 for activate caspase-3 staining cells (expressed as % of total Hoechst staining cells) using treatment conditions from FIG. 12 as well as PD15305 plus zVAD-fmk (100 μM). Values represent mean+SEM, and a significant difference from vehicle alone is indicated by (*). Methodology is further described in Example 3.
AIRWAY EPITHELIAL CELL CULTURE AND TREATMENT.
IMMUNOCYTOCHEMISTRY. Cultured cells were washed twice with PBS at 4° C., fixed in 4% paraformaldehyde for 10 min. at 25° C., washed with PBS, and permeabilized with ethanol:acetic acid (2:1, vol/vol) for 5 min at −20° C. for TUNEL reaction or with 0.2% Triton-X for 5 min at 25° C. for immunostaining. Permeabilized cells were then washed with PBS and subjected to the TUNEL reaction (Intergen, Purchase, N.Y.) or blocked with 2% fish gel 1 h at 25° C. and incubated with rabbit anti-active caspase 3 (BD Biosciences, San Diego, Calif.), rabbit anti-EGFR (Santa Cruz Biotechnology, Santa Cruz, Calif.), rabbit anti-p-EGFR (Cell Signaling Technology, Inc., Beverly, Mass.), mouse anti-β-tubulin-IV or rabbit anti-β-tubulin (Sigma, St. Louis, Mo.) antibodies overnight at 4° C. Primary antibody binding was detected with goat anti-mouse or donkey anti-rabbit FITC or CY3 secondary antibody. […]

[2] = test system: airway epithelium (ciliated, Clara and goblet cells); test: Quantitative morphometry of airway epithelial cell types (β-tubulin, CCSP, MUC5AC immunostaining) after SeV inoculation; format: in vivo, C57BL/6J mice
From the text: Values represent mean+SEM, and a significant difference from SeV-UV control is indicated by (*). Methodology is further described in Example 2.
FIG. 24 is a bar graph showing quantitative analysis of β-tubulin (ciliated cells), CCSP (Clara cells), and MUC5AC (goblet cells) immunostaining in airways of mice infected with SeV and treated with slL-13 receptor antagonist (slL-13Ra2-Fc) or control IgG from on days 12, 14, 17, and 20 after inoculation. Bars=20 μm. A significant difference from corresponding IgG treatment is indicated by (*). Methodology is further described in Example 4.
(§1) C57BL/6J and Balb/cJ mice were obtained from The Jackson Laboratory (Bar Harbor, Me.) and were maintained and monitored under pathogen-free conditions for study at 7 wk of age as described previously (Walter et al. (2001); Walter et al. (2002); Tyner et al. (2006) J. Clin. Invest. 116:309-321). SeV (Fushimi Strain 52) was grown in embryonated hen eggs and harvested to provide a viral stock solution such that 5000 EID50 (50% egg infectious dose) was equivalent to 2×10^5 PFU (plaque-forming units). This inoculum or an equivalent amount of UV-inactivated SeV was delivered intranasally in 30 μl PBS under ketamine/xylazine anesthesia. Under these conditions, viral tissue levels are maximal at days 3-5 after infection and viral clearance is complete by day 12 (Walter et al. (2001); Walter et al. (2002); Tyner et al. (2006) J. Clin. Invest. 116:309-321). […] For IL-13 blockade, mice were given subcutaneous injections of soluble murine IL-13Rα2 fused to Fc (slL Example 2: EGFR inhibition decreases aspects of epithelial remodeling 13Rα2-Fc; obtained from Deborah Donaldson, Wyeth Ayerst; 200 μg/mouse in PBS) or control Fc on days 12, 14, 17, and 20 post-infection (Donaldson (1998) J. Immunol. 161, 2317).
Mouse lung was fixed by intraracheal instillation of 4% paraformaldehyde at 25-cm H2O pressure. After overnight fixation at 4° C., tissue was embedded in paraffin, and cut into 3-μm thick sections for hematoxylin/eosin or immunostaining.
For immunostaining, tissue sections were deparaffinized, rehydrated in graded alcohol and encircled with a hydrophobic film (ImmEdge PEN, Vector laboratories, Burlingame, Calif.). […] EGFR was detected using rabbit-antihuman EGFR antibody SC-03 from Santa Cruz Biotechnology (Santa Cruz, Calif.) directed against amino acid residues 1005-1016 that are identical to corresponding sequence in murine EGFR. Phosphorylated EGFR (p-EGFR) was detected using rabbit anti-phospho-EGFR (Tyr845) antibody #2231 from Cell Signaling Technology Inc. (Beverly, Mass.) directed against phosphorylated Tyr^845. […]

[3] = test system: EGFR signaling (Akt activation); test: Western blot of lung lysates from SeV-inoculated mice treated with EKB-569; format: in vivo, C57BL/6J mice
Experimental: Blotting was with the indicated antibodies. Methodology is further described in Examples 1 and 2.
as §1

[4] = test system: ciliated epithelial cells in mouse tracheal epithelial cell (mTEC) cultures; test: Ciliated cell survival in mTEC cultures (β-tubulin staining cells as % of total Hoechst-staining cells); format: cell-based; settings: treatment for 7 days
[5] = test system: EGFR-dependent signals (p-EGFR, p-Akt, p-ERK1/2); test: Western blot of EGF-stimulated mTEC cultures with or without inhibitor; format: cell-based, mouse; settings: basic medium then EGF stimulation, inhibitor at maximal effective concentration
[6] = SeV, EGFR inhibitor daily post-infection days 10-21, read at day 21

In the case of “z-Val-Ala-Asp fluoromethylketone [z-VAD-fmk]”, the “TUNEL-positive cells undergoing apoptosis” value [1] is reported as “blocked”.

For `CCOc1cc2ncc(C#N)c(Nc3ccc(F)c(Cl)c3)c2cc1NC(=O)/C=C/CN(C)C` [EKB-569], the Clara cell decreases [2, 6] was “complete blockade”, the ciliated cell increases [2, 6] was “complete blockade” and the goblet cell metaplasia [2, 6] was “partial but significant inhibition”. The “total number of airway epithelial cells (cytokeratin-staining cells)” value ([2]; post-inoculation day 21, vehicle 133±3) was 137±5 per mm basement membrane, the “Akt activation in whole mouse lung” value ([3]; 20 mg/kg by gavage daily, post-infection days 10-21, day 21 post-infection) was “full inhibition” and the “EGFR signaling in vivo” value ([3]; oral, each day from post-inoculation day 10 through day 21) was “blocked EGFR signaling”.

`COc1cccc(-c2cc(=O)c3ccccc3o2)c1N` [PD98059] was tested, and the “loss of ciliated epithelial cells” value [4] was “only treatment with LY294002 caused a similar loss” and the “phosphorylation of ERK1/2” value [5] was “blocked”.

In the case of `COc1cc2ncnc(Nc3cccc(Br)c3)c2cc1OC` [PD153035], the “loss of ciliated epithelial cells” value [4] is reported as “dose-dependent loss of ciliated cells” and the “downstream EGFR signals” value [5] is reported as “blocked all downstream signals”.
